Laboratory results: US5681821A, “Fluorescent 1-peptidylaminoalkanephosphonate derivatives” (Georgia Tech Research Corp., priority 1994, dated 1997)

Assays:
[1] = molecular target: chymotrypsin (Bos taurus, UniProt P00766); test: Inactivation of chymotrypsin, incubation method; format: biochemical, bovine; details: for kobsd /(I) Chymotrypsin: 0.1 M Hepes, 0.5 M NaCl, pH 7.5, 5-10% Me2SO, 25° C., NI = no inhibition after 40 min of incubation
Procedure: (§1) Inactivation rates of serine proteases by fluorescent peptidylphosphonates were measured by the incubation method. In each case the inactivation experiment was preceded by an enzyme assay in which the hydrolysis of peptide p-nitroanilide substrates, catalyzed by chymotrypsin, PPE, HLE, and trypsin was measured in 0.1M Hepes and 0.5M NaCl (0.01M CaCl2 for trypsin), pH 7.5 buffer containing 5-10% Me2 SO at 25° C. Stock solutions of substrates were prepared in Me2 SO (20 mM) and stored at -20° C. Final substrate concentrations were 0.24 mM. Chymotrypsin activity was assayed with Suc-Val-Pro-Phe-NA. PPE was assayed with Suc-Ala-Ala-Ala-NA. HLE was assayed with MeO-Suc-Ala-Ala-Pro-Val-NA and trypsin was assayed with Z-Arg-NA. The initial rates of hydrolysis were measured at 410 nm (ε410 =8800 M^-1 cm^-1) on a Beckman 35 spectrophotometer after 25-50 μL of an enzyme stock solution was added to a cuvette containing 2.0 mL of buffer and 25 μL of substrate.
(§2) Each inhibition reaction was initiated by adding a 50 μL aliquot of inhibitor (100-5000 μM in Me2 SO) to 0.5 mL of a 0.1M Hepes, 0.5M NaCl (0.01M CaCl2 for trypsin), pH 7.5 buffer containing 50 μL of a stock enzyme solution at 25° C. The enzyme stock solutions were 20 μM chymotrypsin, trypsin, and PPE in 1 mM HCl (pH 3), and 0.4-4 μM HLE in 0.25M NaAc and 1M NaCl at pH 5.5. All the enzyme stock solutions were stored at -20° C. prior to use. Aliquots (25 μL) were withdrawn at various intervals and the residual enzymatic activity was measured spectrophotometrically as described above. Pseudo first-order inactivation rate constants (kobsd) were obtained from plots of ln vt /vo vs time and had correlation coefficients greater than 0.98. Each kobsd was calculated from 5-10 activity determinations which extended to 2-3 half lives. Control experiments were carried out in the same way as described above except Me2 SO was added in place of the inhibitor solution in Me2 SO. […] These initial rates were used as vo in the calculation of the inhibition rate constants.

[2] = molecular target: T1, porcine pancreatic elastase (PPE) (Sus scrofa, UniProt P00772); test: Inactivation of PPE, incubation method; format: biochemical; details: 0.1 M Hepes, 0.5 M NaCl, pH 7.5, 5-10% Me2SO, 25° C.; NI = no inhibition after 40 min of incubation
T1 construct: purchased United States Biochemical Corp., Cleveland, Ohio
T1 sequence (P00772 27-266): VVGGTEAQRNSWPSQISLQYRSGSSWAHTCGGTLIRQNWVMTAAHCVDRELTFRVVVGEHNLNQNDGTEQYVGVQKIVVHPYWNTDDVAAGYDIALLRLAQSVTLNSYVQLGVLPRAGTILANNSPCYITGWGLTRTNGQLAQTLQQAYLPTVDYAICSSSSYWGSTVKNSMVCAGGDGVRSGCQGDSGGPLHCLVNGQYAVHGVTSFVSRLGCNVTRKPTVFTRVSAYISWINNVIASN
Procedure: as §1, §2

[3] = molecular target: T2, human leukocyte elastase (HLE) (Homo sapiens, UniProt P08246); test: Inactivation of HLE, incubation method; format: biochemical; details: 0.1 M Hepes, 0.5 M NaCl, pH 7.5, 5-10% Me2SO, 25° C.; NI = no inhibition after 40 min of incubation
T2 construct: purchased Athens Research and Technology, Inc., Athens, Ga
T2 sequence (P08246 30-267): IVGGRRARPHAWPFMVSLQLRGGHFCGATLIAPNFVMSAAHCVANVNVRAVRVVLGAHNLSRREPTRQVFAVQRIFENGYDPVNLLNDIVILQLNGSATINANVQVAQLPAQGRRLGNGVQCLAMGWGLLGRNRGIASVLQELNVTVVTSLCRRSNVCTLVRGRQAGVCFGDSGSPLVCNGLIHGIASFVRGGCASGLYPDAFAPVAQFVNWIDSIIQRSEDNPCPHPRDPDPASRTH
Procedure: as §1, §2

[4] = test system: RNK-16 cells; test: Cell labeling and confocal imaging of NK line RNK-16; format: cell-based; details: live RNK-16 cells, 0.1 mM inhibitor, 30 minutes, 37° C., confocal microscopy
Procedure: Cell Labeling and Imaging. Cells of the NK line RNK-16 were labeled as live cells, washed, treated with methanol as a fixative and permeabilizing agent, and then examined by confocal microscopy. The cells were treated at 1×10^7 cells/mL in RPMI 1640 culture media (Sigma Chemical Co., St. Louis, Mo.) containing 10 mM Hepes with 0.1 mM FTC-Aca-Ala-Ala-Met^P (OPh)2 for 30 minutes at 37° C. Control cells were treated with the same volume of DMSO required to deliver the inhibitor (typically 1% final concentration). Cells were then washed several times with phosphate buffered saline (PBS) to remove excess inhibitor. They were suspended overnight in cold 80% methanol to permeabilize the membrane. The cells were washed free of MeOH into PBS and fixed onto poly-L-lysine (Sigma) coated microscope slides using 3% paraformaldehyde. Fixed slides were washed in PBS, coated with Vectashield (Vector Laboratories, Inc., Burlingame, Ca.) to prevent fluorescence fading and topped with a coverslip. Fluorescent laser scanning confocal microscopy was done with a Bio-Rad MRC 600 confocal system utilizing a Zeiss Axiophot microscope and equipped with a mixed-gas argon/krypton ion laser using 488 nm excitation for fluorescein.

[5] = test system: RNK-16 chymase; test: Inactivation of RNK-16 granule chymase activity; format: biochemical; details: granule protease activity
[6] = molecular target: T3, Asp-ase granule protease (Rattus norvegicus, UniProt P18291); test: Inactivation of RNK-16 granule Asp-ase activity; format: biochemical; details: RNK-16 granule protease activity
T3 construct: endogenous in cells; host or cells: RNK-16
T3 sequence (P18291 21-248): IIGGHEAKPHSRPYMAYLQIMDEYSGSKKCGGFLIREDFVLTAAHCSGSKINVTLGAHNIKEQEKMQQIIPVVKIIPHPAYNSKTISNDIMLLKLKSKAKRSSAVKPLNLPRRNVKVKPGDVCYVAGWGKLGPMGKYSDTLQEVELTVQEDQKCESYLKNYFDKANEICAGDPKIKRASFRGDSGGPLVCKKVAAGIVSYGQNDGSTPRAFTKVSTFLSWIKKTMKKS

[7] = test system: tryptase granule protease; test: Inactivation of RNK-16 granule tryptase activity; format: biochemical; details: RNK-16 granule protease activity
[8] = test system: RNK-16 chymase; details: previous approach, comparison; cited from earlier work
[9] = test system: tryptase granule protease; details: previous approach, comparison; cited from earlier work

## Diphenyl 1-(6-(4(or 2)(9-(2,3,6,7,12,13,16,17-octahydro-1H,5H,11H,15H-xantheno(2,3,4-ij:5,6,7- i'j')diquinolizinyl-18-ium))3(or 5)sulfo-1-phenylsulfonamido)caproylphenylalanylleucylamino)-2-phenylethanephosphonate, Hydroxide, Inner Salt [Compound 4]
[1]
  kobsd /(I) Chymotrypsin: 15 M⁻¹ s⁻¹
[2]
  kobsd /(I) PPE: 11 M⁻¹ s⁻¹
[3]
  kobsd /(I) HLE: 96 M⁻¹ s⁻¹

## CC(C)C[C@H](NC(=O)[C@H](Cc1ccccc1)NC(=O)OCc1ccccc1)C(=O)NC(Cc1ccccc1)P(=O)(Oc1ccccc1)Oc1ccccc1 (stereo partly drawn) [Compound 7, Z-Phe-Leu-Phe^P (OPh)2, reference compound]
[1]
  kobsd /(I) Chymotrypsin: 110 M⁻¹ s⁻¹
[3]
  kobsd /(I) HLE: 27 M⁻¹ s⁻¹

## CC(NC(=O)[C@H](C)NC(=O)[C@H](C)NC(=O)CCCCCNC(=S)Nc1ccc2c(c1)C(=O)OC21c2ccc(O)cc2Oc2cc(O)ccc21)P(=O)(Oc1ccccc1)Oc1ccccc1 (stereo partly drawn) [Compound 2, Diphenyl 1-(6-(5-Fluoresceinylthiocarbamoylamino)caproylalanylalanylamino) ethanephosphonate]
[2]
  kobsd /(I) PPE: 22 M⁻¹ s⁻¹

## CSCCC(NC(=O)[C@H](C)NC(=O)[C@H](C)NC(=O)OC(C)(C)C)P(=O)(Oc1ccccc1)Oc1ccccc1 (stereo partly drawn) [Compound 5, Boc-Ala-Ala-Met^P (OPh)2, reference compound]
[1]
  kobsd /(I) Chymotrypsin: 3 M⁻¹ s⁻¹
[2]
  kobsd /(I) PPE: 3 M⁻¹ s⁻¹
[3]
  kobsd /(I) HLE: 2 M⁻¹ s⁻¹

## CSCCC(NC(=O)[C@H](C)NC(=O)[C@H](C)NC(=O)CCCCCNC(=S)Nc1ccc2c(c1)C(=O)OC21c2ccc(O)cc2Oc2cc(O)ccc21)P(=O)(Oc1ccccc1)Oc1ccccc1 (stereo partly drawn) [Compound 1, Diphenyl 1-(6-(5-Fluoresceinylthiocarbamoylamino)caproylalanylalanylamino)-3-(methylthio)propanephosphonate]
[1]
  kobsd /(I) Chymotrypsin: 190 M⁻¹ s⁻¹
[2]
  kobsd /(I) PPE: 13 M⁻¹ s⁻¹
[3]
  kobsd /(I) HLE: 22 M⁻¹ s⁻¹
[4]
  fluorescent labeling of cells: reacted with distinct, granule-like regions
[5]
  inactivation of RNK-16 chymase: inactivated
[6]
  inactivation of Asp-ase granule protease activity: little
[7]
  inactivation of tryptase granule protease activity: little

## CC(C)C[C@H](NC(=O)[C@H](Cc1ccccc1)NC(=O)CCCCCNC(=S)Nc1ccc2c(c1)C(=O)OC21c2ccc(O)cc2Oc2cc(O)ccc21)C(=O)NC(Cc1ccccc1)P(=O)(Oc1ccccc1)Oc1ccccc1 (stereo partly drawn) [Compound 3, Diphenyl 1-(6-(5-Fluoresceinylthiocarbamoylamino)caproylphenylalanylleucylamino)-2-phenylethanephosphonate]
[1]; ratio of kobsd/(I) chymotrypsin to HLE
  times faster inhibition of chymotrypsin than of HLE: 600
[2]
  kobsd /(I) PPE: 16 M⁻¹ s⁻¹

## CC(NC(=O)[C@H](C)NC(=O)[C@H](C)NC(=O)OCc1ccccc1)P(=O)(Oc1ccccc1)Oc1ccccc1 (stereo partly drawn) [Compound 6, Z-Ala-Ala-Ala^P (OPh)2, reference compound]
[2]
  kobsd /(I) PPE: 30 M⁻¹ s⁻¹

B1: soybean trypsin inhibitor: reversible serine protease inhibitor, macromolecular inhibitor (protein, UniProt P01070 25-205, looked up)
Trypsin inhibitor A: DFVLDNEGNPLENGGTYYILSDITAFGGIRAAPTGNERCPLTVVQSRNELDKGIGTIISSPYRIRFIAEGHPLSLKFDSFAVIMLCVGIPTEWSVVEDLPEGPAVKIGENKDAMDGWFRLERVSDDEFNNYKLVFCPQQAEDDKCGDIGISIDHDDGTRRLVVSKNKPLVVQFQKLDKESL
[8]
  inactivation of chymases of cytotoxic lymphocytes: inactivated
[9]
  inactivation of tryptases of cytotoxic lymphocytes: inactivated
